Experimental data as given in PubChem BioAssay (NCI).
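Five compound concentrations were applied to cells in 96-well plates for 48 hours; endpoints were derived by simple linear interpolation of the resulting dose-response curve. Here, GI50 denotes the concentration required for 50% inhibition of growth. TGI: concentration producing complete growth inhibition.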

How the values were obtained:
Assay in all cases: DTP human tumour cell line panel, 48 h
[1] = system: 786-0 renal
[2] = system: A498 renal
[3] = system: A549 NSCLC
[4] = system: ACHN renal
[5] = system: BT-549 breast
[6] = system: CAKI-1 renal
[7] = system: DU-145 prostate
[8] = system: EKVX NSCLC
[9] = system: HCC-2998 colon
[10] = system: HCT-116 colon
[11] = system: HCT-15 colon
[12] = system: HL-60(TB) leukemia
[13] = system: HOP-62 NSCLC
[14] = system: HOP-92 NSCLC
[15] = system: HS 578T breast
[16] = system: HT29 colon
[17] = system: IGROV1 ovarian
[18] = system: K-562 leukemia
[19] = system: KM12 colon
[20] = system: LOX IMVI melanoma
[21] = system: M14 melanoma
[22] = system: MCF7 breast
[23] = system: MDA-MB-231 breast
[24] = system: MDA-MB-435
[25] = system: MDA-N
[26] = system: MOLT-4 leukemia
[27] = system: NCI-H226 lung
[28] = system: NCI-H23 lung
[29] = system: NCI-H460 lung
[30] = system: NCI-H522 lung
[31] = system: NCI/ADR-RES ovarian
[32] = system: OVCAR-3 ovarian
[33] = system: OVCAR-4 ovarian
[34] = system: OVCAR-5 ovarian
[35] = system: OVCAR-8 ovarian
[36] = system: PC-3 prostate
[37] = system: RPMI-8226 leukemia
[38] = system: RXF 393 renal
[39] = system: SF-268 CNS
[40] = system: SF-295 CNS
[41] = system: SF-539 CNS
[42] = system: SK-MEL-2 melanoma
[43] = system: SK-MEL-28 melanoma
[44] = system: SK-MEL-5 melanoma
[45] = system: SN12C renal
[46] = system: SNB-19 CNS
[47] = system: SNB-75 CNS
[48] = system: SR leukemia
[49] = system: SW-620 colon
[50] = system: T-47D breast
[51] = system: TK-10 renal
[52] = system: U251 CNS
[53] = system: UACC-257 melanoma
[54] = system: UO-31 renal
[55] = system: CCRF-CEM leukemia
[56] = system: COLO 205 colon
[57] = system: MALME-3M melanoma
[58] = system: SK-OV-3 ovarian
[59] = system: UACC-62 melanoma

`Cc1cc2c([nH]c3ccccc32)c(O)c1-c1c(C)cc2c([nH]c3ccccc32)c1O` was tested, and the TGI [1] was 26.6 µM, the GI50 [2] was 15.9 µM and the TGI [2] was 29.4 µM. For the same compound, the TGI [3] was 26.8 µM, the TGI [4] was 27.3 µM and the TGI [5] was 33.6 µM. For the same compound, the GI50 [6] was 14.7 µM, the TGI [6] was 27.9 µM and the TGI [7] was 25.7 µM. It also gave a TGI [8] of 27.7 µM, a TGI [9] of 22.4 µM and a TGI [10] of 27.2 µM. The GI50 [11] was 10.1 µM, the TGI [11] was 23.8 µM and the GI50 [12] was 32.9 µM. The TGI [12] was 55 µM, the TGI [13] was 31.5 µM and the TGI [14] was 30.7 µM. The TGI [15] was 32.7 µM, the GI50 [16] was 6.04 µM and the TGI [16] was 19.5 µM. For the same compound, the TGI [17] was 25.2 µM, the GI50 [18] was 12.3 µM and the TGI [18] was 25.9 µM. It also gave a TGI [19] of 21.7 µM, a TGI [20] of 32.7 µM and a TGI [21] of 29.8 µM. It also gave a GI50 [22] of 11.2 µM, a TGI [22] of 25 µM and a TGI [23] of 33 µM. For the same compound, the GI50 [24] was 15 µM, the TGI [24] was 28.2 µM and the GI50 [25] was 14.7 µM. For the same compound, the TGI [25] was 27.8 µM, the GI50 [26] was 3.62 µM and the TGI [26] was 16.3 µM. For the same compound, the TGI [27] was 36.5 µM, the GI50 [28] was 12.4 µM and the TGI [28] was 26.8 µM. The TGI [29] was 16.7 µM, the TGI [30] was 31.5 µM and the TGI [31] was 29.4 µM. It also gave a TGI [32] of 29.3 µM, a TGI [33] of 28.8 µM and a GI50 [34] of 15 µM. The TGI [34] was 29 µM, the TGI [35] was 30.4 µM and the TGI [36] was 25.9 µM. It also gave a GI50 [37] of 3.85 µM, a TGI [37] of 18.5 µM and a TGI [38] of 23.1 µM. The TGI [39] was 27.4 µM, the GI50 [40] was 17.4 µM and the TGI [40] was 33.4 µM. The TGI [41] was 31.7 µM, the TGI [42] was 30.6 µM and the TGI [43] was 55 µM. The GI50 [44] was 16.5 µM, the TGI [44] was 30.1 µM and the TGI [45] was 6.44 µM. The TGI [46] was 32.2 µM, the TGI [47] was 27.5 µM and the GI50 [48] was 3.16 µM. It also gave a TGI [48] of 16 µM, a TGI [49] of 50.8 µM and a TGI [50] of 31.3 µM. It also gave a TGI [51] of 31.2 µM, a TGI [52] of 23.7 µM and a TGI [53] of 30.9 µM. For the same compound, the GI50 [54] was 13 µM and the TGI [54] was 25.7 µM.
Work on `C#CCn1c(=O)c(C)cn(/C(=C\C(=O)OCC)C(=O)OCC)c1=O` yielded a TGI [1] greater than 100 µM, a TGI [2] of 40.8 µM and a TGI [3] of 39.2 µM. The TGI [4] was 3.22 µM, the TGI [5] was 22.8 µM and the TGI [6] was 2.86 µM. The GI50 [55] was 0.7 µM, the TGI [55] was 8 µM and the GI50 [56] was 1.52 µM. The TGI [56] was 3.12 µM, the TGI [7] was 35 µM and the TGI [8] was 30.1 µM. The TGI [10] was 10.3 µM, the TGI [11] was 8.23 µM and the TGI [12] was greater than 100 µM. It also gave a TGI [13] of 39.2 µM, a TGI [14] of 5.17 µM and a TGI [15] of 62 µM. For the same compound, the TGI [16] was 4.03 µM, the TGI [17] was 15.3 µM and the TGI [18] was greater than 100 µM. It also gave a TGI [19] of 53.6 µM, a TGI [20] greater than 50.2 µM and a TGI [21] of 11.3 µM. The TGI [57] was 5.6 µM, the TGI [22] was 11.9 µM and the TGI [23] was 31.2 µM. It also gave a TGI [24] of 21.2 µM, a TGI [25] of 22.2 µM and a TGI [26] greater than 26.5 µM. For the same compound, the TGI [27] was 36.1 µM, the TGI [28] was 27.3 µM and the TGI [29] was 8.06 µM. The TGI [31] was 17.1 µM, the TGI [32] was 18.4 µM and the TGI [33] was 6.35 µM. The TGI [34] was 23.9 µM, the TGI [35] was 13.2 µM and the TGI [36] was 27.6 µM. It also gave a TGI [37] greater than 23.2 µM, a TGI [38] of 4.49 µM and a TGI [39] of 35.7 µM. It also gave a TGI [40] of 42.3 µM, a TGI [41] of 4.25 µM and a TGI [42] of 32.8 µM. The GI50 [43] was 14.5 µM, the TGI [43] was 31 µM and the TGI [44] was greater than 100 µM. For the same compound, the TGI [58] was greater than 56.4 µM, the TGI [45] was 33.9 µM and the TGI [46] was 39.4 µM. The TGI [47] was 36 µM, the TGI [48] was greater than 27.6 µM and the GI50 [49] was 2.14 µM. It also gave a TGI [49] greater than 100 µM, a TGI [50] of 5.95 µM and a TGI [51] of 3.44 µM. The TGI [52] was 15 µM, the TGI [53] was 28.2 µM and the TGI [59] was 23 µM. The TGI [54] was 25.5 µM.
For `c1cncc(CNCc2cccnc2)c1`, the TGI [1] was greater than 100 µM, the TGI [2] was greater than 100 µM and the TGI [3] was greater than 100 µM. For the same compound, the TGI [4] was greater than 100 µM, the TGI [5] was greater than 100 µM and the TGI [6] was greater than 100 µM. The TGI [55] was greater than 100 µM, the TGI [56] was greater than 100 µM and the TGI [7] was greater than 100 µM. It also gave a TGI [8] greater than 100 µM, a TGI [10] greater than 100 µM and a TGI [11] greater than 100 µM. For the same compound, the TGI [12] was greater than 100 µM, the TGI [13] was greater than 100 µM and the TGI [14] was greater than 100 µM. For the same compound, the TGI [15] was greater than 100 µM, the TGI [16] was greater than 100 µM and the TGI [17] was greater than 100 µM. It also gave a TGI [18] greater than 100 µM, a TGI [19] greater than 100 µM and a TGI [20] greater than 100 µM. For the same compound, the TGI [21] was greater than 100 µM, the TGI [57] was greater than 100 µM and the TGI [22] was greater than 100 µM. It also gave a TGI [23] greater than 100 µM, a TGI [24] greater than 100 µM and a TGI [25] greater than 100 µM. For the same compound, the TGI [26] was greater than 100 µM, the TGI [27] was greater than 100 µM and the TGI [28] was greater than 100 µM. The TGI [29] was greater than 100 µM, the TGI [30] was greater than 100 µM and the TGI [31] was greater than 100 µM. It also gave a TGI [32] greater than 100 µM, a TGI [33] greater than 100 µM and a TGI [34] greater than 100 µM. For the same compound, the TGI [35] was greater than 100 µM, the TGI [36] was greater than 100 µM and the TGI [37] was greater than 100 µM. It also gave a TGI [38] greater than 100 µM, a TGI [39] greater than 100 µM and a TGI [40] greater than 100 µM. It also gave a TGI [41] greater than 100 µM, a TGI [42] greater than 100 µM and a TGI [43] greater than 100 µM. The TGI [44] was greater than 100 µM, the TGI [58] was greater than 100 µM and the TGI [45] was greater than 100 µM. It also gave a TGI [46] greater than 100 µM, a TGI [47] greater than 100 µM and a TGI [48] greater than 100 µM. The TGI [49] was greater than 100 µM, the TGI [50] was greater than 100 µM and the TGI [51] was greater than 100 µM. It also gave a TGI [52] greater than 100 µM, a TGI [53] greater than 100 µM and a TGI [59] greater than 100 µM. It also gave a TGI [54] greater than 100 µM.
